Where “and” joins values, the source holds several entries; their conditions need not be identical. Equal values may be shown once.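 Each compound was tested at five concentrations against cells in 96-well plates for 48 hours. GI50 is the concentration that inhibits growth by half. TGI is the concentration that stops growth completely.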
Tests used:
Assay in all cases: DTP human tumour cell line panel, 48 h
SK-MEL-5 melanoma = test system: SK-MEL-5 melanoma
NCI/ADR-RES ovarian = test system: NCI/ADR-RES ovarian
HOP-92 NSCLC = test system: HOP-92 NSCLC
HCT-15 colon = test system: HCT-15 colon
OVCAR-8 ovarian = test system: OVCAR-8 ovarian
786-0 renal = test system: 786-0 renal
EKVX NSCLC = test system: EKVX NSCLC
NCI-H522 lung = test system: NCI-H522 lung
MOLT-4 leukemia = test system: MOLT-4 leukemia
SR leukemia = test system: SR leukemia
HT29 colon = test system: HT29 colon
TK-10 renal = test system: TK-10 renal
M14 melanoma = test system: M14 melanoma
COLO 205 colon = test system: COLO 205 colon
SK-MEL-28 melanoma = test system: SK-MEL-28 melanoma
CCRF-CEM leukemia = test system: CCRF-CEM leukemia
OVCAR-3 ovarian = test system: OVCAR-3 ovarian
A549 NSCLC = test system: A549 NSCLC
RPMI-8226 leukemia = test system: RPMI-8226 leukemia
UACC-257 melanoma = test system: UACC-257 melanoma
K-562 leukemia = test system: K-562 leukemia
RXF 393 renal = test system: RXF 393 renal
SF-295 CNS = test system: SF-295 CNS
OVCAR-5 ovarian = test system: OVCAR-5 ovarian
SNB-75 CNS = test system: SNB-75 CNS
UO-31 renal = test system: UO-31 renal
MDA-MB-231 breast = test system: MDA-MB-231 breast
OVCAR-4 ovarian = test system: OVCAR-4 ovarian
SF-539 CNS = test system: SF-539 CNS
SK-MEL-2 melanoma = test system: SK-MEL-2 melanoma
LOX IMVI melanoma = test system: LOX IMVI melanoma
SW-620 colon = test system: SW-620 colon
NCI-H460 lung = test system: NCI-H460 lung
T-47D breast = test system: T-47D breast
DU-145 prostate = test system: DU-145 prostate
UACC-62 melanoma = test system: UACC-62 melanoma
HCT-116 colon = test system: HCT-116 colon
HL-60(TB) leukemia = test system: HL-60(TB) leukemia
PC-3 prostate = test system: PC-3 prostate
BT-549 breast = test system: BT-549 breast
NCI-H226 lung = test system: NCI-H226 lung
IGROV1 ovarian = test system: IGROV1 ovarian
A498 renal = test system: A498 renal
HCC-2998 colon = test system: HCC-2998 colon
SN12C renal = test system: SN12C renal
SK-OV-3 ovarian = test system: SK-OV-3 ovarian
NCI-H23 lung = test system: NCI-H23 lung
ACHN renal = test system: ACHN renal
MCF7 breast = test system: MCF7 breast
MALME-3M melanoma = test system: MALME-3M melanoma
SF-268 CNS = test system: SF-268 CNS
HS 578T breast = test system: HS 578T breast
U251 CNS = test system: U251 CNS
MDA-MB-435 = test system: MDA-MB-435
SNB-19 CNS = test system: SNB-19 CNS
HOP-62 NSCLC = test system: HOP-62 NSCLC
KM12 colon = test system: KM12 colon
CAKI-1 renal = test system: CAKI-1 renal

Compound: COc1cc2c(Nc3ccc(Cl)c(Cl)c3F)ncnc2cc1OCC1C[C@@H]2CN(C)C[C@@H]2C1 (stereo not given in full)
- GI50 (SK-MEL-5 melanoma): 1610 nM and 1550 nM and 1570 nM
- TGI (SK-MEL-5 melanoma): 3010 nM and 2930 nM and 2940 nM
- GI50 (NCI/ADR-RES ovarian): 1730 nM and 1570 nM and 1220 nM
- TGI (NCI/ADR-RES ovarian): 9930 nM and > 9380 nM and 7350 nM
- GI50 (HOP-92 NSCLC): 247 nM and 195 nM and 1500 nM
- TGI (HOP-92 NSCLC): 1850 nM and 1800 nM and 6780 nM
- GI50 (HCT-15 colon): 1140 nM and 1250 nM and 1130 nM
- TGI (HCT-15 colon): 3700 nM and 5420 nM and 4510 nM
- GI50 (OVCAR-8 ovarian): 2060 nM and 2090 nM and 2430 nM
- TGI (OVCAR-8 ovarian): 13800 nM and > 10000 nM and 13600 nM
- GI50 (786-0 renal): 1110 nM and 1060 nM and 1030 nM
- TGI (786-0 renal): 2580 nM and 2900 nM and 2850 nM
- GI50 (EKVX NSCLC): 33 nM and 101 nM
- TGI (EKVX NSCLC): > 6550 nM and 15200 nM
- GI50 (NCI-H522 lung): 304 nM and 75.2 nM and 640 nM
- TGI (NCI-H522 lung): 2530 nM and 1660 nM and 3100 nM
- GI50 (MOLT-4 leukemia): 2180 nM and 1860 nM and 2230 nM
- TGI (MOLT-4 leukemia): 7030 nM and 7850 nM and 8670 nM
- GI50 (SR leukemia): 2060 nM and 2090 nM and 1920 nM
- TGI (SR leukemia): 5490 nM and 5210 nM and 5390 nM
- GI50 (HT29 colon): 695 nM and 759 nM and 621 nM
- TGI (HT29 colon): 4620 nM and 5860 nM and 4380 nM
- GI50 (TK-10 renal): 109 nM and 30.2 nM and 47.2 nM
- TGI (TK-10 renal): 1760 nM and 1410 nM and 1450 nM
- GI50 (M14 melanoma): 1770 nM and 1670 nM and 1820 nM
- TGI (M14 melanoma): 3500 nM and 3530 nM and 3770 nM
- GI50 (COLO 205 colon): 1810 nM and 1830 nM and 1720 nM
- TGI (COLO 205 colon): 3470 nM and 4320 nM and 3930 nM
- GI50 (SK-MEL-28 melanoma): 1600 nM and 1570 nM and 1830 nM
- TGI (SK-MEL-28 melanoma): 3330 nM and 3220 nM and 4150 nM
- TGI (CCRF-CEM leukemia): 7560 nM and 1240 nM and 10500 nM
- GI50 (OVCAR-3 ovarian): 1010 nM and 422 nM and 1790 nM
- TGI (OVCAR-3 ovarian): 8180 nM and > 9270 nM and 14700 nM
- GI50 (A549 NSCLC): 1230 nM and 1350 nM and 1280 nM
- TGI (A549 NSCLC): 4050 nM and > 5680 nM and 7930 nM
- GI50 (RPMI-8226 leukemia): 1980 nM and 1490 nM and 1930 nM
- TGI (RPMI-8226 leukemia): 4950 nM and 4290 nM and 5970 nM
- GI50 (UACC-257 melanoma): 1760 nM and 1680 nM and 1950 nM
- TGI (UACC-257 melanoma): 3640 nM and 3570 nM and 4050 nM
- GI50 (K-562 leukemia): 240 nM and 114 nM and 170 nM
- TGI (K-562 leukemia): 2690 nM and > 7770 nM and 3140 nM
- GI50 (RXF 393 renal): 808 nM and 690 nM and 846 nM
- TGI (RXF 393 renal): 2360 nM and 2410 nM and 2510 nM
- GI50 (SF-295 CNS): 1610 nM and 1540 nM and 1460 nM
- TGI (SF-295 CNS): 3410 nM and 3260 nM and 3310 nM
- GI50 (OVCAR-5 ovarian): 247 nM and 532 nM and 646 nM
- TGI (OVCAR-5 ovarian): 5350 nM and > 10000 nM and 13600 nM
- GI50 (SNB-75 CNS): 406 nM and 430 nM and 822 nM
- TGI (SNB-75 CNS): 2030 nM and 5860 nM
- GI50 (UO-31 renal): 171 nM and 101 nM and 177 nM
- TGI (UO-31 renal): 1930 nM and 1610 nM and 1870 nM
- GI50 (MDA-MB-231 breast): 1410 nM and 1120 nM and 1500 nM
- TGI (MDA-MB-231 breast): 4300 nM and 3020 nM and 4880 nM
- GI50 (OVCAR-4 ovarian): 1580 nM and 1690 nM and 1750 nM
- TGI (OVCAR-4 ovarian): 13400 nM and > 10000 nM and 14000 nM
- GI50 (SF-539 CNS): 1470 nM and 1480 nM and 1580 nM
- TGI (SF-539 CNS): 3000 nM and 3010 nM and 3360 nM
- GI50 (SK-MEL-2 melanoma): 2320 nM and 1920 nM and 2050 nM
- TGI (SK-MEL-2 melanoma): 4830 nM and 4010 nM and 4470 nM
- GI50 (LOX IMVI melanoma): 953 nM and 1180 nM
- TGI (LOX IMVI melanoma): 2310 nM and 2490 nM and 2460 nM
- GI50 (SW-620 colon): 1600 nM and 1460 nM and 1720 nM
- TGI (SW-620 colon): 3560 nM and 4060 nM and 5060 nM
- GI50 (NCI-H460 lung): 2660 nM and 2730 nM and 3350 nM
- TGI (NCI-H460 lung): 9160 nM and > 10000 nM and 13500 nM
- GI50 (T-47D breast): 465 nM and 363 nM and 330 nM
- TGI (T-47D breast): 6560 nM and > 10000 nM and 10200 nM
- GI50 (DU-145 prostate): 751 nM and 532 nM and 673 nM
- TGI (DU-145 prostate): 13600 nM and > 10000 nM and 13500 nM
- GI50 (UACC-62 melanoma): 1910 nM and 1540 nM and 1880 nM
- TGI (UACC-62 melanoma): 4150 nM and 3800 nM and 4410 nM
- GI50 (HCT-116 colon): 2210 nM and 1590 nM and 1820 nM
- TGI (HCT-116 colon): 10900 nM and > 8580 nM and 9060 nM
- GI50 (HL-60(TB) leukemia): 2310 nM and 1990 nM and 2430 nM
- TGI (HL-60(TB) leukemia): 5720 nM and 4730 nM and 5730 nM
- GI50 (PC-3 prostate): 1530 nM and 1360 nM and 2120 nM
- TGI (PC-3 prostate): 11600 nM and > 9560 nM and 8990 nM
- GI50 (BT-549 breast): 4680 nM and 3760 nM and 2390 nM
- TGI (BT-549 breast): 13700 nM and > 10000 nM and 7660 nM
- GI50 (NCI-H226 lung): 3050 nM and > 4500 nM and 2170 nM
- TGI (NCI-H226 lung): 15100 nM and > 10000 nM and 14700 nM
- GI50 (IGROV1 ovarian): 112 nM and 28.4 nM and 50.7 nM
- TGI (IGROV1 ovarian): 1950 nM and 791 nM and 1440 nM
- GI50 (A498 renal): 186 nM and 433 nM and 278 nM
- TGI (A498 renal): 1490 nM and 2030 nM and 2050 nM
- GI50 (HCC-2998 colon): 2370 nM and 1410 nM and 1820 nM
- TGI (HCC-2998 colon): 7100 nM and > 5780 nM and 5030 nM
- GI50 (SN12C renal): 703 nM and 548 nM and 1050 nM
- TGI (SN12C renal): 12600 nM and > 10000 nM and 12200 nM
- GI50 (SK-OV-3 ovarian): 234 nM and 241 nM and 195 nM
- TGI (SK-OV-3 ovarian): 902 nM and 1510 nM and 865 nM
- GI50 (NCI-H23 lung): 1980 nM and 2100 nM
- TGI (NCI-H23 lung): 7010 nM and > 6380 nM and 9220 nM
- GI50 (ACHN renal): 46.8 nM and 51.2 nM and 55.3 nM
- TGI (ACHN renal): 3480 nM and > 7360 nM and 5740 nM
- GI50 (MCF7 breast): 806 nM and 1190 nM and 1520 nM
- TGI (MCF7 breast): 6370 nM and > 6900 nM and 8050 nM
- GI50 (MALME-3M melanoma): 1790 nM and 1580 nM
- TGI (MALME-3M melanoma): 4250 nM and 3540 nM and 3630 nM
- GI50 (SF-268 CNS): 1250 nM and 951 nM and 1290 nM
- TGI (SF-268 CNS): 4310 nM and > 4820 nM and 7740 nM
- GI50 (HS 578T breast): 1130 nM and 1400 nM and 1540 nM
- TGI (HS 578T breast): 4670 nM and 5450 nM and 5830 nM
- GI50 (U251 CNS): 1520 nM and 1800 nM and 2300 nM
- TGI (U251 CNS): 3410 nM and 4430 nM and 6600 nM
- GI50 (MDA-MB-435): 1570 nM and 1780 nM and 1850 nM
- TGI (MDA-MB-435): 3050 nM and 3900 nM and 4290 nM
- GI50 (SNB-19 CNS): 2170 nM and 2390 nM and 2040 nM
- TGI (SNB-19 CNS): 8760 nM and > 6910 nM and 7070 nM
- GI50 (HOP-62 NSCLC): 1080 nM and 1000 nM and 1520 nM
- TGI (HOP-62 NSCLC): 4170 nM and > 4900 nM and 5750 nM
- GI50 (KM12 colon): 2940 nM and 3500 nM and 3850 nM
- TGI (KM12 colon): 9030 nM and > 10000 nM and 15700 nM
- GI50 (CAKI-1 renal): 219 nM and 511 nM and 206 nM
- TGI (CAKI-1 renal): 2750 nM and 2360 nM and 2320 nM

Source: PubChem BioAssay (NCI)
